Data published in patent publication US9828375B2, “4-position substituted pyrazolopyrimidine derivative, and use thereof in drug preparation” (Guangxi Wuzhou Pharmaceuticals (Group) Co., Ltd., priority 2012, dated 2017).

Columns and labels:
[1] = test system: human pancreatic carcinoma cell line panc-1; experiment: In vitro tumor cell proliferation inhibition (MTT): panc-1; type: cell-based
Text: (§1) The purpose of the experiment was to test the inhibition activity of the compounds of the invention for in vitro human tumor cell proliferation by the methyl thiazolyl tetrazolium (MTT) colorimetry.
(§2) Main reagents: RPMI-1640, fetal bovine serum, pancreatin, etc. were purchased from Gibco BRL Company (Invitrogen Corporation, USA) and IMDM medium that was purchased from American Type Culture Collection (ATCC). Methyl thiazolyl tetrazolium (MTT) and dimethyl sulfoxide (DMSO) were products from Sigma Company (USA). Pyrazolopyrimidine derivatives were composed by the inventor. During in vitro experiment, 100% DMSO was prepared into 10 mM storage solution, the solution was stored in a refrigerator at −20° C. for future use, and was diluted to the required concentration with complete culture solution before use.
(§3) Cell line and culture: Human leukemia cell line MV4-11, Jurkat, K562, human thyrophyma cell line TT, human gastric carcinoma cell line MKN-45, human malignant melanoma cell lines A375 and A875, human pancreatic carcinoma cell line panc-1, human cervical carcinoma cell line HELA, human colorectal carcinoma cell line HCT116, etc. were purchased from American type culture collection and were preserved by this laboratory. All leukemia cell lines (except MV4-11), gastric carcinoma cell lines and thyrophyma cell lines were cultured in RPMI-1640 complete medium containing 10% fetal bovine serum, 100 U/mL penicillin and 100 μg/mL streptomycin at 37° C. in 5% CO2. The remaining cell lines were cultured in DMEM complete medium containing 10% fetal bovine serum (containing 20% MV4-11 cell), 100 U/mL penicillin and 100 µg/mL streptomycin at 37° C. in 5% CO2.
(§4) Cell suspension with cell concentration of 1-2×10^4/mL was adjusted with the complete cell medium and inoculated in a 96-well plate, with each well filled with 200 μl cell suspension that was cultured overnight. On the next day, supernatant was sucked and abandoned (supernatant was sucked upon centrifugation of suspension cells), and then cells were processed with test compounds at gradient concentrations respectively. Meanwhile, a negative control group free from drug and a solvent control group with equal volume were set, and the DMSO concentration was 0.1%. Each dose group was provided with three wells and cultured at 37° C. in 5% CO2. After 72 hours, 20 μl 5 mg/mL MTT reagent was added to each well, and cultured for another 2 to 4 hours, the supernatant was abandoned; 150 μL DMSO was added to each well again, vibrated and mixed evenly for 15 minutes; the absorbance (A) values (proportional to living cell amount) were determined with a microplate reader (λ=570 nm) and averaged. […] Experiment was repeated for 3 times at least. Experimental data were expressed with means, data statistics were tested by t, and P<0.05 means that difference has a statistical significance. The cell proliferation inhibition effects of all compounds as follows are expressed by IC50 or inhibition rate.

[2] = test system: Abl/Abl (T315I)(h); experiment: Kinase inhibition activity test, isotope labeling: Abl; type: biochemical, human; conditions: test compound at a concentration of 10 μM
Protocol: (§5) The purpose of this experiment was to test the inhibitory activity of the compound of the invention for in vitro kinase with the isotope labeling method (the γ phosphate group on ATP was labeled). In this experiment, the in vitro activity inhibition of such kinases as FLT3, VEGFR2, FLT1, FLT4, RET, c-RAF, B-RAF, c-KIT, PDGFα, PDGFβ, FGFR2, FGFR1, EphA2, EphB2, SRC, ABL, ALK and Met was tested respectively. Staurosporine was reference molecule (or referred to as positive control). The kinase inhibition activity of the test compound was expressed by half-inhibitory concentration (IC50) or the kinase activity inhibition rate of the test compound at a concentration of 10 μM. The IC50 value could be obtained by calculating the kinase activity inhibition rate of the test compound at different concentrations.
(§6) 20 mM 3-(N-morpholinyl)propanesulfonic acid (MOPS); 1 mM ethylenediaminetetraacetic acid (EDTA), 0.01% Brij 35 (Brij-35), 5% glycerol, 0.1% mercaptoethanol, 1 mg/mL bovine serum albumin (BSA), 10 mM manganous dichloride solution (MnCl2), 0.1 mg/mL glutamic acid/tyrosine (4:1) polypeptide (poly(Glu, Tyr)4:1), 50 μM EAIYAAPFAKKK (substrate of FLT3), 0.33 mg/mL myelin basic protein (substrate of VEGFR2), 250 μM KKKSPGEYVNIEFG (substrate of FLT1(h)), 500 μM GGEEEEYFELVKKKK (substrate of FLT4(h)), 250 μM KKKSPGEYVNIEFG (substrate of RET), 0.66 mg/mL myelin basic protein (substrate of C-RAF), 250 μM GGMEDIYFEFMGGKKK (substrate of c-Kit), 250 μM GGMEDIYFEFMGGKKK (substrate of PDGFα), 250 μM KKKSPGEYVNIEFG (substrate of FGFR1), […] GGEEEEYFELVKKKK (substrate of SRC), 50 μM EAIYAAPFAKKK (substrate of ABL), 250 μM KKKSPGEYVNIEFG (substrate of ALK), 250 μM KKKSPGEYVNIEFG (substrate of Met(h)), 10 mM magnesium acetate and γ-^33 P-ATP solution, stop buffer (3% phosphate buffer), washing buffer (75 mM phosphate solution), methanol, Filtermat A membrane, FLT3, VEGFR2, FLT3, VEGFR2, FLT1, FLT4, RET, c-RAF, B-RAF, c-KIT, PDGFRα, PDGFRβ, FGFR2, FGFR1, EphA2, EphB2, SRC, ABL, ALK, Met and other kinases, and the test compounds.
(§7) Buffers (8 mM MOPS with pH value of 7.0, 0.2 mM EDTA and 10 mM MnCl2), (5-10 mU) kinases to be tested (FLT3, VEGFR2, FLT1, FLT4, RET, c-RAF, B-RAF, c-KIT, PDGFRα, PDGFRβ, FGFR2, FGFR1, EphA2, EphB2, SRC, ABL, ALK and Met), substrates of kinases to be tested (refer to experimental materials), 10 mM magnesium acetate and γ-^33 P-ATP solution, and test compounds at different concentrations were added to a reaction tube orderly. […] Reaction was terminated with 5 μL 3% phosphate buffer finally, and 10 μL reaction solution was titrated to the Filtermat A membrane; solution was washed for 3 times with 75 mM phosphate solution with each time lasting 5 minutes, and then washed once with methanol. Finally, the Filtermat A membrane was dried, and scintillation counting was performed on the membrane, with scintillation count reflecting the phosphorylation degree of the substrates, so that the activity inhibition of kinase could be characterized.

[3] = test system: human thyrophyma cell line TT; experiment: In vitro tumor cell proliferation inhibition (MTT): TT; type: cell-based
Text: as §1, §2, §3, §4

[4] = target: c-RAF (Homo sapiens, UniProt P04049); experiment: Kinase inhibition activity test, isotope labeling: c-RAF; type: biochemical; conditions: ATP 45 μM; read-out: c-RAF IC50 value (inhibitory activity value)
Chain of c-RAF (P04049 whole entry): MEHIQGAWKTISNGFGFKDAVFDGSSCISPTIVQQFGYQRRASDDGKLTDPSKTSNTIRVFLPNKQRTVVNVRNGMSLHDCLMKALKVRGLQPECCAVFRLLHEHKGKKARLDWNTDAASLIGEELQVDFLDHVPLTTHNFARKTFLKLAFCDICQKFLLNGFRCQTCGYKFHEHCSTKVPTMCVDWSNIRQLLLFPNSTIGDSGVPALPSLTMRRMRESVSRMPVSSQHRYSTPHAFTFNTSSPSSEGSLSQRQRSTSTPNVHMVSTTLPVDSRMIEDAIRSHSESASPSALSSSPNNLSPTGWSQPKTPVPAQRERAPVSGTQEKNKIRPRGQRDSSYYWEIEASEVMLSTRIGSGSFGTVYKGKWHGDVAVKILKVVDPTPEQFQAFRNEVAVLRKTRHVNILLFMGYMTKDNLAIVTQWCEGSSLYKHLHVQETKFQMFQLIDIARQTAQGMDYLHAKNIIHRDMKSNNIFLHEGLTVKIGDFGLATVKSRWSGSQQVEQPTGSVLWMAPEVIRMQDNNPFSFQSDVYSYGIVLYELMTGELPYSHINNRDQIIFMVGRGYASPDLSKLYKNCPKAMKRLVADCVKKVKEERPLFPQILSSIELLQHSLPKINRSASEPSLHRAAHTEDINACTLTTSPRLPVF
Protocol: as §5, §6
as §7, with “Finally, the Filtermat A membrane was dried, and scintillation counting was performed on the membrane, with scintillation count reflecting the phosphorylation degree of the substrates, so that the activity inhibition of kinase could be characterized.” left out

[5] = target: FGFR1 (Homo sapiens, UniProt P11362); experiment: Kinase inhibition activity test, isotope labeling: FGFR1; type: biochemical; conditions: ATP 200 μM; read-out: FGFR1 IC50 value (inhibitory activity value)
Chain of FGFR1 (P11362 22-822): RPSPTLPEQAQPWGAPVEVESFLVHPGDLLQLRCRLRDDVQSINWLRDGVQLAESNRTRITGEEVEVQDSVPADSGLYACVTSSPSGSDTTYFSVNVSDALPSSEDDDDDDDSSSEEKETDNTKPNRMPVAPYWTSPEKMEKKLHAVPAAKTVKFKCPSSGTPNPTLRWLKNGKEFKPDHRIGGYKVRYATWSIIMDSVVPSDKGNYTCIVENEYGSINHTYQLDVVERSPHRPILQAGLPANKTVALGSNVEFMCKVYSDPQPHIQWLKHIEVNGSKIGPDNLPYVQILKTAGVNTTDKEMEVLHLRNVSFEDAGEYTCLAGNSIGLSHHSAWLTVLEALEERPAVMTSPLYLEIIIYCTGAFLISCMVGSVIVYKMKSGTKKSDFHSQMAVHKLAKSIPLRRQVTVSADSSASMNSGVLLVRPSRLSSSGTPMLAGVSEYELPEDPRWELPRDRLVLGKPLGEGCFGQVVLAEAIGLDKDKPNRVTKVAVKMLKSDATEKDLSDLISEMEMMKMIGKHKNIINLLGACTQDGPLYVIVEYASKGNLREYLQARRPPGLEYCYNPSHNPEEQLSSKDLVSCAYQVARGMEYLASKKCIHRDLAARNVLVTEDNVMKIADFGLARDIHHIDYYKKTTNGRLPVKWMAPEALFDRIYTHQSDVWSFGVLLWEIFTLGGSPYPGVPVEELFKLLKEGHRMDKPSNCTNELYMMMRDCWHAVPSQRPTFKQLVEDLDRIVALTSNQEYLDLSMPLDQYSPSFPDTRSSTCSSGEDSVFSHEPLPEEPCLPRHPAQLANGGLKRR
Protocol: as §5, §6
as §7, with “Finally, the Filtermat A membrane was dried, and scintillation counting was performed on the membrane, with scintillation count reflecting the phosphorylation degree of the substrates, so that the activity inhibition of kinase could be characterized.” left out

| SMILES | IC50 ([1]; Homo sapiens, PANC-1, 72 hours) [µM] | Activity inhibition rate Abl/Abl (T315I)(h) [2] [%] | IC50 ([3]; Homo sapiens, 72 h) [µM] | IC50 [4] [µM] | IC50 [5] [µM] | IC50 ([1]; 72 hours) [µM] | IC50 ([3]; 72 hours) [µM] |
| --- | --- | --- | --- | --- | --- | --- | --- |
| O=C(Nc1ccc(Oc2ncnc3[nH]ncc23)cc1)Nc1cc(C(F)(F)F)on1 [4a-28] | < 50 | >50 | 3 to 10 |  |  |  |  |
| CC(C)(C)c1cc(NC(=O)Nc2ccc(Oc3ncnc4[nH]ncc34)cc2)on1 [4a-25] |  | >50 |  | 0.053 | < 10 | 3 to 10 | 1.02 |
| CC(C)(C)c1cc(NC(=O)Nc2ccc(Oc3ncnc4[nH]ncc34)cc2)no1 [4a-26] | 3 to 10 | >50 | 2.12 |  |  |  |  |
| O=C(Nc1ccc(Oc2ncnc3[nH]ncc23)cc1)Nc1ccc(C(F)(F)F)cc1 [4a-1] | < 50 | 17 | < 50 |  |  |  |  |
| O=C(Nc1ccc(Sc2ncnc3[nH]ncc23)cc1)Nc1cccc(C(F)(F)F)c1 [4c-2] |  | >30 |  |  |  | < 50 | 7.89 |
| O=C(Nc1ccc(C(F)(F)F)cc1)Nc1ccc(Oc2ncnc3[nH]ncc23)c(F)c1 [4a-9, 1-(4-((1H-pyrazolopyrimidine-4-yl)oxy)-3-fluorophenyl)-3-(4-(trifluoromethyl)phenyl)urea] |  | 15 |  |  |  | 2.31 | 1.63 |
| CC(C)(C)c1cc(NC(=O)Nc2ccc(Oc3ncnc4[nH]ncc34)cc2)n(-c2ccccc2)n1 [4a-24] |  | >50 |  |  |  | < 50 | 1.55 |
| O=C(Nc1ccc(Oc2ncnc3[nH]ncc23)cc1)Nc1ccc(C(F)(F)F)cc1Cl [4a-13] |  | 27 |  |  |  | < 50 | 3 to 10 |
| O=C(Nc1ccc(Oc2ncnc3[nH]ncc23)cc1)Nc1cccc(C(F)(F)F)c1 [4a-6] | < 50 | 79 | 0.312 | 0.082 | 2.25 |  |  |
| CC(C)(C)c1cc(NC(=O)Nc2ccc(Oc3ncnc4[nH]ncc34)c(F)c2)no1 [4a-31] |  | >50 |  | 0.046 | < 10 | 3 to 10 | 0.943 |
| O=C(Nc1ccc(Oc2ncnc3[nH]ncc23)cc1)Nc1ccc(Cl)c(C(F)(F)F)c1 [4a-2] |  | 86 |  | 0.072 | < 10 | < 50 | 3.42 |
| CC(C)(C)c1cc(NC(=O)Nc2ccc(Sc3ncnc4[nH]ncc34)cc2)no1 [4c-3, 1-(4-(1H-pyrazolopyrimidine-4-sulfydryl)phenyl)-3-(5-tert-butylisoxazol-3-yl)urea] |  | >30 |  |  |  | < 50 | 3 to 10 |
